These molecules were tested against hSTING (Homo sapiens, UniProt Q86WV6) (assay: STING reporter assay in THP1-Dual KO-IFNAR2 cells (2′3′cGAMP stimulation, luciferase reporter)). Settings: 15 μM 2′3′cGAMP, 24 h, luciferase reporter activity.
Assay type: cell-based
Protocol: STING pathway activation by the compounds described herein was measured using THP1-Dual™ cells (KO-IFNAR2).
THP1-Dual™ KO-IFNAR2 Cells (obtained from invivogen) were maintained in RPMI, 10% FCS, 5 ml P/S, 2 mM L-glut, 10 mM Hepes, and 1 mM sodium pyruvate. Compounds were spotted in empty 384 well tissue culture plates (Greiner 781182) by Echo for a final concentration of 0.0017-100 μM. Cells were plated into the TC plates at 40 μL per well, 2×10E6 cells/mL. For activation with STING ligand, 2′3′cGAMP (MW 718.38, obtained from Invivogen), was prepared in Optimem media.
The following solutions were prepared for each 1×384 plate: • Solution A: 2 mL Optimem with one of the following stimuli: • 60 μL of 10 mM 2′3′cGAMP→150 μM stock • Solution B: 2 mL Optimem with 60 μL Lipofectamine 2000→Incubate 5 min at RT
2 mL of solution A and 2 ml Solution B was mixed and incubated for 20 min at room temperature (RT). 20 μL of transfection solution (A+B) was added on top of the plated cells, with a final 2′3′cGAMP concentration of 15 μM. The plates were then centrifuged immediately at 340 g for 1 minute, after which they were incubated at 37° C., 5% CO2, >98% humidity for 24 h. Luciferase reporter activity was then measured. EC50 values were calculated by using standard methods known in the art.
Luciferase reporter assay: 10 μL of supernatant from the assay was transferred to white 384-plate with flat bottom and squared wells. One pouch of QUANTI-Luc™ Plus was dissolved in 25 mL of water. 100 μL of QLC Stabilizer per 25 mL of QUANTI-Luc™ Plus solution was added. 50 μL of QUANTI-Luc™ Plus/QLC solution per well was then added. Luminescence was measured on a Platereader (e.g., Spectramax I3X (Molecular Devices GF3637001)).
Luciferase reporter activity was then measured. EC50 values were calculated by using standard methods known in the art.

Chain of hSTING (Q86WV6 whole entry R71H/G230A/H232R/R293Q, form open): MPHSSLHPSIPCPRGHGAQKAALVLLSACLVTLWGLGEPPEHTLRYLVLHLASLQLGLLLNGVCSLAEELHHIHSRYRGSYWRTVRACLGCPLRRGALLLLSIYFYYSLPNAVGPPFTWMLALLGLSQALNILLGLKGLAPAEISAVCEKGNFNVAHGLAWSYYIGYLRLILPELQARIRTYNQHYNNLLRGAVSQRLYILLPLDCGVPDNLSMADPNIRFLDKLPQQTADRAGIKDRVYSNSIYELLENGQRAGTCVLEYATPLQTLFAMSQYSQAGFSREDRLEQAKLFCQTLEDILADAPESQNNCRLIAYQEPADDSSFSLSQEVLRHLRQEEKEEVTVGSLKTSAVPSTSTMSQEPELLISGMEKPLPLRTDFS

| SMILES | EC50 [nM] |
| --- | --- |
| CNC(=O)Nc1c[nH]c2ccc(-c3cnn(Cc4ccc(C(F)(F)F)cc4)c3)cc12 [Compound 105, 1-methyl-3-(5-(1-(4-(trifluoromethyl)benzyl)-1H-pyrazol-4-yl)-1H-indol-3-yl)urea] | 200 to 1000 |
| CCc1ccc(-n2cc(-c3ccc4[nH]cc(NC(=O)NCC5CCCC5)c4c3)cn2)cc1 [Compound 111, 1-(cyclopentylmethyl)-3-{5-[1-(4-ethylphenyl)-1H-pyrazol-4-yl]-1H-indol-3-yl}urea] | 200 to 1000 |
| CCc1ccc(-n2cc(-c3ccc4[nH]cc(NC(=O)N5CCCC5)c4c3)cn2)cc1 [Compound 112, N-(5-(1-(4-ethylphenyl)-1H-pyrazol-4-yl)-1H-indol-3-yl)pyrrolidine-1-carboxamide] | 200 to 1000 |
| CNC(=O)Nc1c[nH]c2ccc(-c3cnn(-c4cccc(Cl)c4)c3)cc12 [Compound 113, 1-{5-[1-(3-chlorophenyl)-1H-pyrazol-4-yl]-1H-indol-3-yl}-3-methylurea] | 200 to 1000 |
| CNC(=O)Nc1c[nH]c2ccc(-c3cnn(-c4ccccc4Cl)c3)cc12 [Compound 115, 1-{5-[1-(2-chlorophenyl)-1H-pyrazol-4-yl]-1H-indol-3-yl}-3-methylurea] | 1000 to 5000 |
| CNC(=O)Nc1c[nH]c2ccc(-c3cnn(-c4cccc(C#N)c4)c3)cc12 [Compound 116, 1-{5-[1-(3-cyanophenyl)-1H-pyrazol-4-yl]-1H-indol-3-yl}-3-methylurea] | 5000 to 100000 |
| CNC(=O)Nc1c[nH]c2ccc(-c3ccc(C4(C#N)CC4)cc3)cc12 [Compound 121, 1-{5-[4-(1-cyanocyclopropyl)phenyl]-1H-indol-3-yl}-3-methylurea] | 5000 to 100000 |
| CNC(=O)Nc1c[nH]c2ccc(-c3cnn(C4CCCC4)c3)cc12 [Compound 123, 1-[5-(1-cyclopentyl-1H-pyrazol-4-yl)-1H-indol-3-yl]-3-methylurea] | 5000 to 100000 |
| CCc1ccc(-n2cc(-c3ccc4[nH]cc(NC(=O)N[C@H]5C[C@H](OC)C5)c4c3)cn2)cc1 [Compound 125, 1-(5-(1-(4-ethylphenyl)-1H-pyrazol-4-yl)-1H-indol-3-yl)-3-((1r,3r)-3-methoxycyclobutyl)urea] | 200 to 1000 |
| CCc1ccc(-n2cc(-c3ccc4[nH]cc(NC(=O)NC5CCC5)c4c3)cn2)cc1 [Compound 126, 1-cyclobutyl-3-(5-(1-(4-ethylphenyl)-1H-pyrazol-4-yl)-1H-indol-3-yl)urea] | 200 to 1000 |
| CCc1ccc(-n2cc(-c3ccc4[nH]cc(NC(=O)NCC(F)F)c4c3)cn2)cc1 [Compound 127, 1-(2,2-difluoroethyl)-3-(5-(1-(4-ethylphenyl)-1H-pyrazol-4-yl)-1H-indol-3-yl)urea] | 200 to 1000 |
| CCc1ccc(-n2cc(-c3ccc4[nH]cc(NC(=O)NCC(F)(F)F)c4c3)cn2)cc1 [Compound 129, 1-{5-(1-(4-ethylphenyl)-1H-pyrazol-4-yl]-1H-indol-3-yl}-3-(2,2,2-trifluoroethyl)urea] | 40 to 200 |
| CCc1ccc(-n2cc(-c3ccc4[nH]cc(NC(=O)NC(C)C)c4c3)cn2)cc1 [Compound 130, 1-(5-(1-(4-ethylphenyl)-1H-pyrazol-4-yl)-1H-indol-3-yl)-3-isopropylurea] | 200 to 1000 |
| CNC(=O)Nc1c[nH]c2ccc(-c3cnn(-c4ccccc4)c3)cc12 [Compound 131, 3-methyl-1-[5-(1-phenyl-1H-pyrazol-4-yl)-1H-indol-3-yl]urea] | 1000 to 5000 |
| CCc1ccc(-n2cc(-c3ccc4[nH]cc(NC(=O)NC)c4c3)cn2)cc1 [Compound 132, 1-(5-(1-(4-ethylphenyl)-1H-pyrazol-4-yl)-1H-indol-3-yl)-3-methylurea] | 200 to 1000 |

Other lines, results leading:

| EC50 [nM] | SMILES |
| --- | --- |
| 1000 to 5000 | CC(=O)N1CCC(NC(=O)Nc2c[nH]c3ccc(-c4cnn(-c5ccc(C(F)(F)F)cc5)c4)cc23)C1 (centres unmarked) [Compound 101, 1-(1-acetylpyrrolidin-3-yl)-3-(5-(1-(4-(trifluoromethyl)phenyl)-1H-pyrazol-4-yl)-1H-indol-3-yl)urea] |
| 200 to 1000 | CC(C)(O)CNC(=O)Nc1c[nH]c2ccc(-c3cnn(-c4ccc(C(F)(F)F)cc4)c3)cc12 [Compound 102, 1-(2-hydroxy-2-methylpropyl)-3-(5-(1-(4-(trifluoromethyl)phenyl)-1H-pyrazol-4-yl)-1H-indol-3-yl)urea] |
| 200 to 1000 | O=C(NCC1CC1)Nc1c[nH]c2ccc(-c3cnn(Cc4ccc(C(F)(F)F)cc4)c3)cc12 [Compound 103, 1-(cyclopropylmethyl)-3-(5-(1-(4-(trifluoromethyl)benzyl)-1H-pyrazol-4-yl)-1H-indol-3-yl)urea] |
| 200 to 1000 | O=C(NCC(F)(F)F)Nc1c[nH]c2ccc(-c3cnn(-c4ccc(C(F)(F)F)cc4)c3)cc12 [Compound 104, 1-(2,2,2-trifluoroethyl)-3-(5-(1-(4-(trifluoromethyl)phenyl)-1H-pyrazol-4-yl)-1H-indol-3-yl)urea] |
| 200 to 1000 | O=C(NCC1CC1)Nc1c[nH]c2ccc(-c3cnn(-c4ccc(C(F)(F)F)cn4)c3)cc12 [Compound 106, 1-(cyclopropylmethyl)-3-(5-(1-(5-(trifluoromethyl)pyridin-2-yl)-1H-pyrazol-4-yl)-1H-indol-3-yl)urea] |
| 200 to 1000 | O=C(NCC(F)(F)F)Nc1c[nH]c2ccc(-c3cnn(-c4ccc(C(F)(F)F)cn4)c3)cc12 [Compound 107, 1-(2,2,2-trifluoroethyl)-3-(5-(1-(5-(trifluoromethyl)pyridin-2-yl)-1H-pyrazol-4-yl)-1H-indol-3-yl)urea] |
| 1000 to 5000 | CCc1ccc(-n2cc(-c3ccc4[nH]cc(NC(=O)N5CCN(C(C)=O)CC5)c4c3)cn2)cc1 [Compound 108, 4-acetyl-N-{5-[1-(4-ethylphenyl)-1H-pyrazol-4-yl]-1H-indol-3-yl}piperazine-1-carboxamide] |
| 200 to 1000 | O=C(NCC1CC1)Nc1c[nH]c2ccc(-c3cnn(-c4ccc(C(F)(F)F)cc4)c3)cc12 [Compound 109, 1-(cyclopropylmethyl)-3-(5-(1-(4-(trifluoromethyl)phenyl)-1H-pyrazol-4-yl)-1H-indol-3-yl)urea] |
| 200 to 1000 | CCc1ccc(-n2cc(-c3ccc4[nH]cc(NC(=O)NCCOC)c4c3)cn2)cc1 [Compound 110, 1-(5-(1-(4-ethylphenyl)-1H-pyrazol-4-yl)-1H-indol-3-yl)-3-(2-methoxyethyl) urea] |
| 40 to 200 | CCc1ccc(-n2cc(-c3ccc4[nH]cc(NC(=O)NCCC(F)(F)F)c4c3)cn2)cc1 [Compound 114, 1-(5-(1-(4-ethylphenyl)-1H-pyrazol-4-yl)-1H-indol-3-yl)-3-(3,3,3-trifluoropropyl)urea] |
| 5000 to 100000 | CNC(=O)Nc1c[nH]c2ccc(-c3ccnc(N4CCCCC4)c3)cc12 [Compound 117, 3-methyl-1-{5-[2-(piperidin-1-yl)pyridin-4-yl]-1H-indol-3-yl}urea] |
| 200 to 1000 | CNC(=O)Nc1c[nH]c2ccc(-c3cnn(-c4ccc(C(F)(F)F)cc4)c3)cc12 [Compound 118, 1-methyl-3-(5-(1-(4-(trifluoromethyl)phenyl)-1H-pyrazol-4-yl)-1H-indol-3-yl)urea] |
| 200 to 1000 | CCc1ccc(-n2cc(-c3ccc4[nH]cc(NC(=O)N(C)C)c4c3)cn2)cc1 [Compound 119, 3-(5-(1-(4-ethylphenyl)-1H-pyrazol-4-yl)-1H-indol-3-yl)-1,1-dimethylurea] |
| 200 to 1000 | CCc1ccc(-n2cc(-c3ccc4[nH]cc(NC(=O)NC5CCCC5)c4c3)cn2)cc1 [Compound 120, 1-cyclopentyl-3-(5-(1-(4-ethylphenyl)-1H-pyrazol-4-yl)-1H-indol-3-yl)urea] |
| 1000 to 5000 | CNC(=O)Nc1c[nH]c2ccc(-c3cccc(C4CC4)c3)cc12 [Compound 122, 1-[5-(3-cyclopropylphenyl)-1H-indol-3-yl]-3-methylurea] |
| 200 to 1000 | CCc1ccc(-n2cc(-c3ccc4[nH]cc(NC(=O)NC5CCOC5)c4c3)cn2)cc1 (centres unmarked) [Compound 124, 1-(5-(1-(4-ethylphenyl)-1H-pyrazol-4-yl)-1H-indol-3-yl)-3-(tetrahydrofuran-3-yl)urea] |
| 200 to 1000 | CCc1ccc(-n2cc(-c3ccc4[nH]cc(NC(=O)NCC5CC5)c4c3)cn2)cc1 [Compound 128, 1-(cyclopropylmethyl)-3-(5-(1-(4-ethylphenyl)-1H-pyrazol-4-yl)-1H-indol-3-yl)urea] |
